The record followed here is patent publication US20160199380A1, “Sigma Ligands For the Prevention or Treatment of Pain Induced by Chemotherapy” (Laboratorios del Dr. Esteve, S.A., priority 2009, published 2016).

Test [1] relates to paclitaxel-induced mechanical allodynia. Nature of the test: Electronic Von Frey (Dynamic Plantar Aesthesiometer), paclitaxel-induced mechanical allodynia in mice. Type of test: in vivo, CD-1 mice. The procedure:
(§1) Experiments were performed in CD-1 mice (Charles River, U.S.A.) with at least n=10/experimental group. […] Control animals received the same volume of solvent (a mixture of ethanol and cremophor EL)
(§2) Mechanical allodynia was evaluated with an electronically driven Von Frey filament (Dynamic Plantar. Aesthesiorneter, Ugo Basile, Varese, Italy) as previously described (Nieto et al., Pain, 2008, 137(3), 520-31), and cold allodynia was evaluated using the acetone drop method (Nieto et al., Pain, 2008, 137(3), 520-31). […] In addition, in order to study the influence of the sigma 1 receptor in this process the difference in development of allodynia was determined using wild-type mice and sigma 1-receptor knock-out-mice.
Therefore, the cumulative dose was 10 mg/kg per mouse. In the control group the vehicle of paclitaxel was administered following the same schedule.
Compound 63 was dissolved in normal saline just before administration and applied at doses of 8, 16, 32 or 64 mg/kg subcutaneously.
The effects of Compound 63 on paclitaxel-induced neuropathic pain were examined in two different ways. […] The response of the animals to the different nociceptive stimuli was tested subsequently during 2-4 weeks, depending on the test (see below), without any additional treatment. Each animal was tested only in one nociceptive model. To test the effect of compound 63 on the expression of paclitaxel-induced pain, a single compound 63 injection was performed on day 10, a day of maximum expression of mechanical allodynia or cold aliodynia (see figures for details). Each animal received only one dose of compound 63 and was tested in only one nociceptive model.
Procedure for assessment of mechanical allodynia. To assess mechanical allodynia, paw withdrawal thresholds were measured using a Dynamic Plantar Aesthesiometer (Ugo Basile, Italy). The electronic Von Frey device employs a single nonflexible filament which applies a progressively increasing force (from 0 to 10 g) against the plantar surface of the hind paw over a 20 a period. […] The day of the experiment, mice were placed individually in test compartments (9×9×14 cm) with a wire mesh bottom and allowed to acclimatize to them for 2 h. After habituation, each mouse was tested three times alternately in each hind paw.
On that day, paw withdrawal latency was recorded immediately before (time 0) and at several times (30, 60, 90, 120 and 180 min) after the injection of compound 63 or saline.

Test [2] concerns paclitaxel-induced cold allodynia. Briefly: Acetone test, paclitaxel-induced cold allodynia in mice. Type of test: in vivo, CD-1 mice. The procedure: as §1, §2
Therefore, the cumulative dose was 10 mg/kg per mouse. […]
The response of the animals to the different nociceptive stimuli was tested subsequently during 2-4 weeks, depending on the test (see below), without any additional treatment. Each animal was tested only in one nociceptive model. […] Each animal received only one dose of compound 63 and was tested in only one nociceptive model.
Procedure for assessment of cold allodynis. Cold allodynia was tested as previously described by Nieto et al., Pain, 2008, 137(3), 520-31, by gently touching the plantar skin of the hind paws with an acetone bubble formed with a syringe connected to a thin polyethylene tube. The mice were housed and habituated for 30 min in transparent plastic boxes (7×7×13 cm) with a floor made of wire mesh. After the adaptation period, acetone was applied alternately three times to each paw at intervals of 30 s, and the duration of licking or biting were recorded. A small mirror was placed behind the chambers to allow clear observation of the paws. The time spent licking or biting the paw was recorded by a stopwatch and represented as the cumulative time of licking/biting in the six measurements. Since licking persisting more than 10 s in the experiments was very unusual, a cut-off time of 10 s was used for each trial.
Therefore, the day 10, after the habituation period to the apparatus, baseline latencies were recorded, 30 min later compound 63 or saline was injected s.c. and paw withdrawal latencies were assessed again 60, 120 and 180 minutes after the injection.
(§3) On that day, duration of hind paw licking/biting was recorded immediately before (time 0) and at several times (60, 120 and 180 min) after the injection of compound 63 or saline.
as §3

For test [3], the system named is Oxaliplatin-induced cold allodynia. Nature of the test: Acetone test, chronic model of oxaliplatin-induced neuropathy in rats. Particulars: for reaction time of paw withdrawal (acetone test), curative treatment: throughout the study. Type of test: in vivo, Sprague-Dawley rats. How it is done: Sixty male Sprague-Dawley rats (CERJ, France), weighing 136-169 g at the beginning of the experimental phase (first administration of compounds on D-2), were used. Rats were housed in a temperature (19.5° C.-24.5° C.) and relative humidity (45%-65%) controlled room with a 12 h—light/dark cycle, with ad libitum access to standard pelleted laboratory chow and water throughout the study.
All treatments were administered in a coded order when it is possible.
Animals were tested 2 times during treatment with compound 63 (i.e. D8 and D15) and once 24 h after completion of treatment with compound 63 (i.e. D16).
During the testing days (i.e. D8, D15), compound 63 and 0.5% HPMC were administered 30 min before the test.
Cold allodynia was assessed by measuring the responses to thermal non-nocic ptive stimulation (acetone test) on D8, D15 and D16.
Cold allodynia was assessed using the acetone test. In this test, latency of hindpaw withdrawal was measured after application of a drop of acetone to the plantar surface of both hindpaws (reaction time) and the intensity of tne response was scored (cold score).
Reaction time to the cooling effect of acetone was measured within 20 sec (cut-off) after acetone application. Responses to acetone were also graded to the following 4-point scale: 0 (no response); 1 (quick withdrawal, flick of the paw); 2 (prolonged withdrawal or marked flicking of the paw); 3 (repeated flicking of the paw with licking or biting).
For each experimental group, the results were expressed as: • The reaction time defined as the time expressed in sec required to elicit paw reaction (mean of 6 measures for each rat together±SEM). • The cumulative cold score defined as the sum of the 6 scores for each rat together±SEM. The minimum score being 0 (no response to any of the 6 trials) and the maximum possible score being 18 (repeated flicking and licking or biting of paws on each of the six trials).
Statistical significance between the treated groups and the vehicle-treated group was determined by a Two-way Repeated Measures ANOVA on Ranks followed, when the F value is significant, by an appropriate post-hoc comparison (Bonferroni's test sing SigmaStet software. The significance level was p<0.05. Statistical analyses were done using SigmaStet software.

Take `Cc1cc(OCCN2CCOCC2)nn1-c1ccc2ccccc2c1` [Compound 63, 4-{2-[5-Methyl-1-(naphthalen-2-yl)-1H-pyrazol-3-yloxy]ethyl}morpholine]: the “mechanical response of control (paclitaxel-vehicle treated) animals” value in test [1] (64 mg/kg s.c. single injection on day 10 after first paclitaxel-vehicle injection) is on record as “did not affect the mechanical response”. In test [1] (64 mg/kg s.c. single injection on day 10 after paclitaxel 2 mg/kg i.p. days 1-5), the “expression of mechanical allodynia induced by paclitaxel (threshold force for hind paw withdrawal)” value was “inhibited the expression of mechanical aliodynia induced by paclitaxel”. Further, the “response of the animals to acetone, co-administration with paclitaxel-vehicle” value in test [2] (64 mg/kg s.c. 30 min before each paclitaxel-vehicle injection, days 1-5, vs paclitaxel-vehicle + saline) was “did not significantly modify the response of the animals to acetone”. In test [2] (64 mg/kg s.c. single injection on day 10, paclitaxel-vehicle treated mice), the “response to acetone of control (paclitaxel-vehicle treated) animals” value is recorded as “did not afex: the response to acetone”. In addition, the “development of cold allodynia induced by paclitaxel (acetone test)” value in test [2] (co-administration: 64 mg/kg s.c. 30 min before each paclitaxel 2 mg/kg i.p. injection, days 1-5, mice) is listed as “inhibited the development of cold allodynia induced by paclitaxel”. Also, the “expression of paclitaxel-induced cold allodynia (duration of hind paw licking/biting, acetone test)” value in test [2] (single s.c. injection 32-128 mg/kg on day 10 after paclitaxel 2 mg/kg i.p. days 1-5, mice, vs saline) is “inhibited the expression of paclitaxel-induced cold allodynia”. Also, the “reaction time of paw withdrawal (acetone test), curative treatment” value in test [3] (20 mg/kg i.p. daily D8-D15) is reported as “low effect”; in test [3] (40 mg/kg i.p. daily D8-D15) it was “intermediate effect”. Further, in test [3] (40 mg/kg i.p. daily D8-D15), the “cumulative cold score (acetone test), curative treatment” value is “intermediate effect”. In test [3] (40 mg/kg i.p. twice a day from D-2 to D15, oxaliplatin 3 mg/kg i.p., rats), the “reaction time of paw withdrawal (acetone test), preventive treatment” value was “induced a beneficial effect”. Further, the “cumulative cold score (acetone test)” value in test [3] (curative, 20 mg/kg i.p., D8) stood at 4.3±0.6; in test [3] (curative, 80 mg/kg i.p. daily D8-D15, D15), 1.8±0.3; in test [3] (curative, 80 mg/kg i.p. daily D8-D15, D16, 24 hours after the last injection), 3.1±0.6; in test [3] (curative, 80 mg/kg i.p., D8), 1.0±0.4; in test [3] (preventive, 40 mg/kg i.p. twice a day D-2 to D15, D8), 2.3±0.6; in test [3] (preventive, 40 mg/kg i.p. twice a day D-2 to D15, D15) it was 3.0±0.6. Further, the “cumulative cold score (acetone test)” value in test [3] (preventive, 40 mg/kg i.p. twice a day D-2 to D15, D16) came to 3.5±0.7. Also, the “reaction time of paw withdrawal (acetone test)” value in test [3] (curative, 80 mg/kg i.p. daily D8-D15, D15, oxaliplatin 3 mg/kg i.p., rats) amounted to 17.5 ± 0.5 s; in test [3] (curative, 80 mg/kg i.p. daily D8-D15, D16 (24 h after last dose), oxaliplatin 3 mg/kg i.p., rats), 15.5 ± 1.0 s; in test [3] (curative, 80 mg/kg i.p. daily from D8, D8, oxaliplatin 3 mg/kg i.p., rats) it was 19.1 ± 0.3 s.
